Tests used:
male Wistar rats [1] = assay: Vogel lick-conflict (drinking conflict) test; format: in vivo, rat; conditions: intraperitoneally, 30 min prior to test; number of tolerated shocks
Procedure: Experiments were performed in a PC operated system (LIIKOSYS, Experimetria, Hungary) consisted of 8 test chambers (20 cm×20 cm×20 cm Plexiglas boxes) each of which was equipped with a water fountain system mounted at appropriate height on the wall of the chamber and metal grid floor for delivering electric shocks. 160-180 g male Wistar rats (N═8) were deprived of drinking water 48 h and fasted for 24 h prior to test. Test and reference compounds or vehicle were administered intraperitoneally, 30 min prior to test. All procedures were carried out in a quiet, air-conditioned room between 07:30 and 13:00 h at an ambient temperature of 23±2° C. At the beginning of the test the animals were placed in the test chamber where they had free access to drinking water for a 30 s grace period. After that, electric shocks (600 μA, 0.6 s) were applied through the drinking spout following every 20 licks during the 5 min test period (Vogel et al, 1971). Number of punished licks were recorded and stored by an IBM compatible computer. Means±SEM of numbers of tolerated shocks were calculated in each group, statistical analysis of data was performed by one way ANOVA followed by Duncan's test (STATISTICA). Diazepam [7-chloro-1,3-dihydro-1-methyl-5-phenyl-2H-1,4-benzodiazepine-2-one] was used as the reference substance.

mouse = assay: Inhibition of spontaneous motor activity (Dews instrument); format: in vivo; conditions: per os, 60 min before test, 30 min recording; sedative effect
Procedure: The effect on spontaneous motor activity was investigated according to Borsy and co-workers [Borsy, J. et al, Arch. Int. Pharmacodyn., 124, 180-190 (1960)] in a ten channel Dews instrument, with 1-1 animal in each channel. Animals were placed into the instrument 60 min after per os treatment with either vehicle or test compound, and interruptions of infrared beams were recorded for 30 min. […] Diazepam was used as the reference substance.

Male Sprague-Dawley rats = assay: Elevated plus-maze test in rats; format: in vivo, rat; conditions: 60 min after treatment, minimal effective dose regarding time spent in the open arms
Excerpt: Test have been performed as described by Pellow and co-workers [J.Neurosci. Methods, 14, 149 (1985)]. A wooden cross, 15 cm wide with 100 cm long arms was used for the experiments. The sides and ends of two opposite arms of the cross were equipped with 40 cm high walls, however, the arms were open to the […] central area (closed arms). The two other opposite arms were not encircled by walls (open arms).
Male Sprague-Dawley rats weighing 200-220 g were used for the experiments. The animals were placed in the central area of the equipment 60 min after treatment and the following four parameters have been observed for the 5 min test time: • time spent in the open arms, • time spent in the closed arms, • number of entries into the open arms, • number of entries into the closed arms.
The effect was expressed as percent increase in either the time (measured in sec) spent in the open arms or number of entries into the open arms. MEDs (minimal effective dose) were determined for each compound regarding the time spent in the open arms
Buspirone [8-{4-[4-(2-pyrimidinyl)-1-piperazinyl]butyl}-8-azaspiro[4,5]decane-7,9-dione] was used as the reference substance.

male Wistar rats [2] = assay: Effects on blood pressure in conscious, freely moving rats (radiotelemetry); format: in vivo, rat
Excerpt: A 7 day postoperative recovery period was allowed.
None of the compounds examined reduced blood pressure of the test animals.

Compound | MED in mg/kg ip. (male Wistar rats [1]) [mg/kg] | ID50 in mg/kg po. (mouse) [mg/kg] | melting point [°C] | MED in mg/kg po. (Male Sprague-Dawley rats) [mg/kg] | Results of statistical evaluation (male Wistar rats [2]; blood pressure compared to placebo, N.S. = Not significant statistically, two-way ANOVA with Scheffe's post hoc test) | Mean blood pressure after treatment with test compound, Mean (male Wistar rats [2]; mean arterial blood pressure for 6 hours after oral treatment, conscious rats) [mmHg]
5-{2-[4-(methoxytrifluoromethylphenyl)-piperazine-1-yl]-ethylamino}-2H-pyridazine-3-one trihydrochloride [Example 1] | 20.0 | – | – | – | – | –
CN1C(=O)CN=C(c2ccccc2)c2cc(Cl)ccc21 [Diazepam, 7-chloro-1,3-dihydro-1-methyl-5-phenyl-2H-1,4-benzodiazepine-2-one, reference compound] | 5.0 | 7.0 | – | – | – | –
O=c1cc(NCCN2CCN(c3ccccc3F)CC2)cn[nH]1 [Example 2, 5-{2-[4-(2-fluorophenyl)piperazine-1-yl]ethyl-amino}-2H-pyridazine-3-one] | 20.0 | 21.0 | 103 to 105 | – | – | –
O=c1cc(NCCN2CCN(c3ccccc3)CC2)cn[nH]1 [Example 3, 5-{2-[4phenylpiperazine-1-yl]ethylamino}2H-pyridazine-3-one] | 5.0 | 60.0 | 147 to 149 | 0.1 | – | –
O=c1cc(NCCN2CCN(c3ccccn3)CC2)cn[nH]1 [Example 4, 5-[2-(4-pyridin-2-ylpiperazine-;1-yl)ethylamino]-2H-pyridazine-3-one] | 10.0 | – | – | – | – | –
O=c1cc(NCCN2CCN(c3ncccn3)CC2)cn[nH]1 [Example 5, 5-[2-(4-pyrimidin-2-ylpiperazine-1-yl)ethylamino]-2H-pyridazine-3-one] | 20.0 | >100.0 | 199 to 201 | – | – | –
O=c1cc(NCCN2CCN(c3ccc(F)cc3)CC2)cn[nH]1 [Example 7, 5-{2-[4-(4-fluorophenyl)piperazine-1-yl]ethyl-amino]-2H-pyridazine-3-one] | 20.0 | – | 96 to 98 | – | N.S. | 92.7

— patent US20050043314A1, “Substituted alkylaminopyridazinone derivatives, process for the preparation thereof and pharmaceutical composition containing the same” (priority 2001, published 2005)
